Reference: patent publication US20080227813A1, “Pharmaceutical compositions and methods for treating diseases associated with neurodegeneration” (priority 2006, published 2008)

How the values were obtained:
patients with ALS [1] = conditions: high dose
Procedure: A clinical trial was conducted to assess the safety and tolerability of Compound I, at three dosages (75, 150, and 300 mg/day) as compared with placebo over 12 weeks of treatment in 80 patients with ALS. It was also conducted to determine the pharmacokinetic characterization of Compound I in serum, as well as cerebrospinal fluid (CSF) penetration, in a subset of the 80 patients participating in the study. This information was correlated with safety measures.
Methodology: This study was a multicenter, double-blind, placebo-controlled study of outpatients with ALS. Eighty subjects at 8-10 centers were enrolled. Subjects received placebo, 25 mg tid, 50 mg tid or 100 mg tid Compound I daily. All 80 subjects received treatment to determine safety and tolerability after 12 weeks of daily treatment. Follow-up visits occurred at 2, 4, 6, 8, 10, 12, and 16 weeks. A subset of participants were admitted to the General Clinical Research Center (GCRC), clinical research center or other department for serum pharmacokinetic studies at Baseline and Week 4, with additional trough serum sampling at Weeks 2, 8, and 12. Cerebrospinal fluid (CSF) penetration was only be evaluated at Week 4.

CRL:(WI)BR rats [2] = assay: Acute oral toxicity in rats; type: in vivo; conditions: rat
Procedure: All animal toxicology studies were performed at Toxicological Research Centre (Veszprém, Hungary) using protocols compliant with OECD guidelines and Principles of Good Laboratory Practice. Following is a summary of the studies conducted.
Acute oral toxicity studies were performed in rats (CRL(WI:)BR) and in mice (CRL: NMRI BR). A control and five dose groups were involved in the rat study at dose levels of 2000 mg/kg, 2600 mg/kg, 3400 mg/kg, 4400 mg/kg and 5700 mg/kg (equal to 1241 mg/kg, 1613 mg/kg, […], 2729 mg/kg and 3535 mg/kg free base, n=5 animals/sex/group).

mSOD1^(G93A) mice = assay: Lifespan and disease progression in mSOD1(G93A) ALS mice; type: in vivo, mouse
Procedure: Nat. Med. 10(4), p. 345-7 (2004), which is incorporated by reference.
Thus, Compound I-treated mice lived an average of 153 days (±2.6 SEM, n=7). This represents a significant increase in lifespan of over 22% (p=<0.001). The effect of beginning Compound I treatment at the time of disease onset was also tested by starting treatment at 70 days of age, when the first signs of locomotor defects are observed. Compound I treatment from 70 days of age extended the mean lifespan of mSOD1^(G93A) mice by 23 days, from 125 days (±1.8 SEM, n=18) in the untreated group to 148 days (±1.5 SEM, n=5) in the treated group. This represents an increase in lifespan of 18% (p=<0.001).

[3] = rat, in vivo
CRL:(WI)BR rats [4] = assay: Acute intravenous toxicity in rats; type: in vivo; conditions: rat
Procedure: A control and five dose groups were involved in the rat study at dose levels of 150 mg/kg, 200 mg/kg, 250 mg/kg, 300 mg/kg and 350 mg/kg (equal to 93 mg/kg, 124 mg/kg, 155 mg/kg, 186 mg/kg and 217 mg/kg free base, n=5 animals/sex/group).

CRL:(WI)BR rats [5] = assay: Acute intraperitoneal toxicity in rats; type: in vivo; conditions: rat
Procedure: Acute intraperitoneal toxicity studies were performed in rats (CRL(WI:)BR) and in mice (CRL: NMRI BR).
A control and five dose groups were involved in the rat study at dose levels of 500 mg/kg, 650 mg/kg, 800 mg/kg, 950 mg/kg and 1200 mg/kg (equal to 310 mg/kg, 403 mg/kg, 496 mg/kg, 589 mg/kg and 744 mg/kg free base, n=5 animals/sex/group).

[6] = system: Salmonella typhimurium strains TA98, TA100, TA1537, TA1535 and Escherichia coli WP2 uvrA; assay: Genotoxicity in bacterial assays; type: cell-based; conditions: up to 5000 μg test item/plate, with and without rat liver fraction
patients with ALS [7] = system: patients with ALS
[8] = treatment from 70 days of age, vs untreated
[9] = 69 assigned to treatment, 100 mg tid, 6 months
[10] = number of patients, open-label 100 mg tid
[11] = vs placebo cohort of the Celebrex® study (historical control)

## [O-][n+]1cccc(/C(Cl)=N/OC[C@H](O)CN2CCCCC2)c1 [Compound I, N-[2-hydroxy-3-(1-piperidinyl)-propoxy]-pyridine-1-oxide-3-carboximidoyl chloride]
Dog liver cells
  amount of metabolite No. 3: 4.9 % of the total radioactivity
  amount of metabolite No. 4: 3.3 % of the total radioactivity
Dog liver cells; dog, hepatocytes
  clearance: 0.055 mL/h
  t1/2: 12.6 h
Patients with ALS [1]; patients also treated with riluzole, not statistically significant
  effect on ALSFRS-R: may improve ALSFRS-R
Patients with ALS [1]; patients not treated with riluzole
  effect on average ALSFRS-R score: no effect
CRL:(WI)BR rats [2]; female, by base
  Oral LD50 value: 1977 - by base mg/kg
CRL:(WI)BR rats [2]; female, by citrate
  Oral LD50 value: 3188 - by citrate mg/kg
CRL:(WI)BR rats [2]; male, by base
  Oral LD50 value: 1754 (1425-2146) - by base mg/kg
CRL:(WI)BR rats [2]; male, by citrate
  Oral LD50 value: 2828 (2297-3460) - by citrate mg/kg
mSOD1^(G93A) mice; 10 mg/kg ip daily from 35 days of age, untreated 125 days
  average lifespan: 153 days
mSOD1^(G93A) mice; 10 mg/kg ip daily from 70 days of age, untreated 125 days
  mean lifespan: 148 days
mSOD1^(G93A) mice; ALS transgenic mouse model
  progression of disease: significantly delayed the progression of disease
mSOD1^(G93A) mice; given pre-symptomatically and at disease onset, study rationale statement
  extension of survival: five weeks
mSOD1^(G93A) mice; treatment from 35 days of age, vs untreated
  increase in lifespan: over 22%
mSOD1^(G93A) mice; [8]
  extension of mean lifespan: 23 days
  increase in lifespan: 18%
[3]
  dose eliminated with bile: 20-30 % of dose
  dose remaining in the rats: ~20%
[3]; iv, 25.8 mg/kg
  radioactivity by 3rd post-treatment hour, share of first measured concentration: 20%
[3]; po
  organ radioactivity at 4th hour, share of 45 min values: 20-60%
  penetration through the blood-brain barrier: weak penetration through the blood-brain barrier
[3]; po, 25.8 mg/kg
  increase of radioactivity in organs and tissues: 4-12 fold
  time of first maximal serum concentration of radioactivity: ≤ 1 h
  total exposure of last day (0-24 h AUD) vs first day: more than two times higher
CRL:(WI)BR rats [4]; female, by base
  Intravenous LD50 value: 215 (190-764) by base mg/kg
CRL:(WI)BR rats [4]; female, by citrate
  Intravenous LD50 value: 346 (306-1232) by citrate mg/kg
CRL:(WI)BR rats [4]; male, by base
  Intravenous LD50 value: 197 (168-301) by base mg/kg
CRL:(WI)BR rats [4]; male, by citrate
  Intravenous LD50 value: 317 (271-485) by citrate mg/kg
CRL:(WI)BR rats [5]; female, by base
  Intraperitoneal LD50 value: 770 - by base mg/kg
CRL:(WI)BR rats [5]; female, by citrate
  Intraperitoneal LD50 value: 1241 - by citrate mg/kg
CRL:(WI)BR rats [5]; male, by base
  Intraperitoneal LD50 value: 698 (577-3871) by base mg/kg
CRL:(WI)BR rats [5]; male, by citrate
  Intraperitoneal LD50 value: 1125 (931-6241) by citrate mg/kg
Human hepatocytes
  amount of metabolite No. 1: 0.64 % of the total radioactivity
  amount of metabolite No. 2: 0.60 % of the total radioactivity
  amount of metabolite No. 3: 0.80 % of the total radioactivity
  amount of metabolite No. 4: 0.62 % of the total radioactivity
  amount of metabolite No. 5 (bimoclomol): 2.59 % of the total radioactivity
Human hepatocytes; human, hepatocytes
  clearance: 0.040 mL/h
  t1/2: 17.2 h
[6]
  mutagenic activity: no mutagenic activity
Patients with ALS [7]; 6 month dosing
  safety and tolerability: safe and well tolerated
Patients with ALS [7]; [9]
  % Early Study Medication Discontinuation: 11.6%
  Completed Trial on Treatment: 61
  Early Study Medication Discontinuation: 8
Patients with ALS [7]; [10]
  treatment discontinuation: Adverse Event: 1
  treatment discontinuation: Death: 1
  treatment discontinuation: Other Reasons: 0
  treatment discontinuation: Reason not listed: 0
  treatment discontinuation: Withdrew Consent: 6
Patients with ALS [7]; over 6-months
  # Early Study Medication Discontinuations per Month: 1.33
Patients with ALS [7]; patients co-administered with riluzole vs without
  rate of ALSFRS-R decline: no apparent difference
Patients with ALS [7]; patients treated with riluzole in addition to Compound I vs those not treated with riluzole
  progression of Vital Capacity (VC): appeared to progress more slowly
Patients with ALS [7]; screening vs 6-month
  change in serum creatinine levels: no significant change
Patients with ALS [7]; [11]
  slower decline by % VC: 7.6%
  slower decline by ALSFRS-R: 21.4%
  slower decline by BMI: 20.4%
  slower decline by weight: 22.8%
